The values below come from US9839642B2, “Beta-tetrazolyl-propionic acids as metallo-beta-lactamase inhibitors” (priority 2014, dated 2017).

One test addresses VIM-1 (Pseudomonas aeruginosa, UniProt A0A0F7KYQ8). As to the kind of experiment: Enzyme activity: determination of IC50, fluorescence assay with CCF2-FA substrate. Conditions: VIM-1 enzyme 30 pM, CCF2-FA 1.25 μM, 2 hours at 25° C.; read-out: VIM1 IC50. The format is biochemical. The gist of the method:
(§1)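 Enzyme at 1 pM (NDM-1), 2 pM (IMP-1) or 30 pM (VIM-1) was incubated with inhibitor (20 μM to 0.00063 μM) and 1.25 μM CCF2-FA in 100 mM KH2PO4 pH 7, 0.005% Tween-20, 10 μM ZnSO4 for 2 hours at 25° C. Fluorescence was read at ex 405/em 460 nm; IC50 from 4-parameter fit.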

The next test deals with NDM-1 (Klebsiella pneumoniae, UniProt C7C422). The description is as above. The note with it: NDM-1 enzyme 1 pM, CCF2-FA 1.25 μM, 2 hours at 25° C.; read-out: NDM1 IC50. In kind it is biochemical. The gist of the method:
as §1

In a further test the target is IMP-1 (Serratia marcescens, UniProt P52699). The test is described as above. In kind it is biochemical. Conditions: IMP-1 enzyme 2 pM, CCF2-FA 1.25 μM, 2 hours at 25° C.; read-out: IMP1 IC50. The gist of the method: as §1
IMP-1, sequence (P52699 19-246, looked up, species assumed): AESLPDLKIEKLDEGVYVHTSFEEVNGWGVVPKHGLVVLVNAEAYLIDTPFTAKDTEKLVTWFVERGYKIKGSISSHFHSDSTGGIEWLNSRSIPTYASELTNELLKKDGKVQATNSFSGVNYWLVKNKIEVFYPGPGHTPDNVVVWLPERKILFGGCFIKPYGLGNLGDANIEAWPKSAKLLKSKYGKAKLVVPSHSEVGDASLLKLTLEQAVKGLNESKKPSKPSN
For test [1], the system named is Klebsiella pneumoniae expressing VIM-1 (IHMA599644). As to the kind of experiment: Antibiotic potentiation activity: synergistic concentration (MITC95) with imipenem, growth by OD600. The note with it: K. pneumoniae IHMA599644 (VIM-1), 95% inhibition of growth. In kind it is cell-based. The gist of the method: (§2)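 Colonies from overnight agar plates (35 °C) were suspended in saline and diluted 1:100 into 1.1× CAMHB. Inhibitor (final 200 μM to 0.195 μM) was combined with imipenem at 1 or 4 μg/ml, incubated 22–24 h at 35 °C, and absorbance read; MITC95 is the lowest inhibitor concentration giving 95% growth inhibition.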

Test [2] deals with Serratia marcescens expressing IMP-1 (CL5741). The test is described as above. The note with it: S. marcescens CL5741 (IMP-1), 95% inhibition of growth. The format is cell-based. The gist of the method: as §2
Test [3] concerns Escherichia coli expressing NDM-1 (CLB30016). The test is described as above. The format is cell-based. The note with it: E. coli CLB30016 (NDM-1), 95% inhibition of growth. The gist of the method:
as §2

NDM-1, sequence (C7C422 29-270, looked up, species assumed): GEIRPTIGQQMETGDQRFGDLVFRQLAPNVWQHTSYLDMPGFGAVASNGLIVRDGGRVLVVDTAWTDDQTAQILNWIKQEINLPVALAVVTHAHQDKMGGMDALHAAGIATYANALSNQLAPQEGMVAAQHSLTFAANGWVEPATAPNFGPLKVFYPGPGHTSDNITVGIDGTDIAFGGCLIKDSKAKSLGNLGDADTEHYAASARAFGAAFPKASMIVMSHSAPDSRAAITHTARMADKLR

For orientation: IC50 means the concentration needed to halve the response being measured. In the case of `CC(C)(C)C(C(=O)O)[C@H](Cc1ccc(Br)s1)c1nnn[nH]1` (stereo partly drawn) [Example 426, (3S)-4-(5-bromothiophen-2-yl)-2-(tert-butyl)-3-(1H-tetrazol-5-yl)butanoic acid], the IC50 at VIM-1 was 49.5 nM; at NDM-1 it was 142 nM; on IMP-1, 27.9 nM. Moreover, the “VIM1 KP599644 MITC95” value in test [1] was found to be 150 µM. Further, the “IMP1 SM5741 MITC95” value in test [2] was found to be 2.344 µM. Moreover, the “NDM1 EC30016 MITC95” value in test [3] was 12.5 µM.

With `CC(C)(C)[C@H](C(=O)O)[C@H](Cc1ccc(NCCN)nc1)c1nnn[nH]1.O=C(O)C(F)(F)F` [Example 427, 2-((5-((2S,3R)-3-carboxy-4,4-dimethyl-2-(1H-tetrazol-5-yl)pentyl)pyridin-2-yl)amino)ethan-1-aminium 2,2,2-trifluoroacetate], the figures for the IC50 at VIM-1, on NDM-1 and on IMP-1 were 17.9 nM, 119 nM and 342 nM, respectively. Further, in test [1], the “VIM1 KP599644 MITC95” value came out at 9.375 µM. Also, the “IMP1 SM5741 MITC95” value in test [2] came to 3.125 µM. The “NDM1 EC30016 MITC95” value in test [3] worked out at 1.563 µM.

For the molecule `CC(C)(C)[C@H](C(=O)O)[C@H](Cc1ccc(C2=CCNC2)nc1)c1nnn[nH]1.O=C(O)C(F)(F)F` [Example 429, 3-(5-((2S,3R)-3-carboxy-4,4-dimethyl-2-(1H-tetrazol-5-yl)pentyl)pyridin-2-yl)-2,5-dihydro-1H-pyrrol-1-ium 2,2,2-trifluoroacetate], the values for the IC50 at VIM-1, at NDM-1 and on IMP-1 were 23.8 nM, 781 nM and 615 nM, respectively. In test [1], the “VIM1 KP599644 MITC95” value stood at 25 µM. Further, in test [2], the “IMP1 SM5741 MITC95” value was 18.75 µM. In addition, in test [3], the “NDM1 EC30016 MITC95” value came to 12.5 µM.

For the molecule `CC(C)(C)C(C(=O)O)[C@H](Cc1ccc(C2CCNC2)nc1)c1nnn[nH]1.O=C(O)C(F)(F)F` (stereo partly drawn) [Example 430, 3-(5-((2S)-3-carboxy-4,4-dimethyl-2-(1H-tetrazol-5-yl)pentyl)pyridin-2-yl)pyrrolidin-1-ium 2,2,2-trifluoroacetate], the IC50 on VIM-1 stood at 52.6 nM; at NDM-1 it was 620 nM; on IMP-1 it was 544 nM. Also, in test [1], the “VIM1 KP599644 MITC95” value came to 25 µM. Besides, the “IMP1 SM5741 MITC95” value in test [2] was 25 µM. Besides, in test [3], the “NDM1 EC30016 MITC95” value was determined as 12.5 µM.

For `CC(C)(C)[C@H](C(=O)O)[C@H](Cc1ccc(C2CCNC2)cc1)c1nnn[nH]1.O=C(O)C(F)(F)F` (stereo partly drawn) [Example 431, 3-(4-((2S,3R)-3-carboxy-4,4-dimethyl-2-(1H-tetrazol-5-yl)pentyl)phenyl)pyrrolidin-1-ium 2,2,2-trifluoroacetate], the values for the IC50 at VIM-1, at NDM-1 and on IMP-1 were 16.6 nM, 71.7 nM and 32.4 nM, respectively. Further, the “VIM1 KP599644 MITC95” value in test [1] stood at 12.5 µM. Besides, in test [2], the “IMP1 SM5741 MITC95” value came to 2.344 µM. Also, in test [3], the “NDM1 EC30016 MITC95” value is 6.25 µM.

As to `CCC[C@H](C(=O)O)[C@H](Cc1ccc(C2(O)CCNC2)cc1)c1nnn[nH]1.O=C(O)C(F)(F)F` (stereo partly drawn) [Example 432, 3-(4-((2S,3S)-3-carboxy-2-(1H-tetrazol-5-yl)hexyl)phenyl)-3-hydroxypyrrolidin-1-ium 2,2,2-trifluoroacetate], the IC50 at VIM-1 was 5.58 nM; on NDM-1, 141 nM; at IMP-1 it was 1010 nM. In test [1], the “VIM1 KP599644 MITC95” value was 12.5 µM. Moreover, the “IMP1 SM5741 MITC95” value in test [2] was 12.5 µM. For the same molecule, the “NDM1 EC30016 MITC95” value in test [3] was determined as 9.375 µM.

Regarding `O=C(O)[C@@H](CCCC1CCNCC1)[C@H](Cc1ccc(C2=CCNC2)cc1)c1nnn[nH]1` [Example 433, (S)-2-((S)-2-(4-(2,5-dihydro-1H-pyrrol-3-yl)phenyl)-1-(1H-tetrazol-5-yl)ethyl)-5-(piperidin-4-yl)pentanoic acid compound with 222,-trifluroacetic acid (1:2)], the IC50 on VIM-1 is 10.1 nM; at NDM-1, 87 nM; on IMP-1, 2000 nM. Besides, the “VIM1 KP599644 MITC95” value in test [1] turned out to be 12.5 µM. For the same molecule, the “IMP1 SM5741 MITC95” value in test [2] was found to be 100 µM. The “NDM1 EC30016 MITC95” value in test [3] was 12.5 µM.

On to `O=C(O)[C@@H](CCCC1CCNCC1)[C@H](Cc1ccc(C2CCNC2)cc1)c1nnn[nH]1` (stereo partly drawn) [Example 434, (2S)-5-(piperidin-4-yl)-2-((1S)-2-(4-(pyrrolidin-3-yl)phenyl)-1-(1H-tetrazol-5-yl)ethyl)pentanoic acid 2,2,2-trifluoroacetate (1:2)], for which the IC50 amounted to 16.6 nM on VIM-1, 67.9 nM on NDM-1 and 2000 nM on IMP-1. In addition, in test [1], the “VIM1 KP599644 MITC95” value is 25 µM. Besides, the “IMP1 SM5741 MITC95” value in test [2] is 100 µM. In addition, the “NDM1 EC30016 MITC95” value in test [3] turned out to be 12.5 µM.

`Nc1ccc(C[C@H](c2nnn[nH]2)[C@H](CC(F)(F)F)C(=O)O)cn1` [Example 435, (S)-2-((S)-2-(6-aminopyridin-3-yl)-1-(1H-tetrazol-5-yl)ethyl)-4,4,4-trifluorobutanoic acid]: the values for the IC50 on VIM-1, at NDM-1 and at IMP-1 were 13.6 nM, 432 nM and 7740 nM, respectively. In addition, the “VIM1 KP599644 MITC95” value in test [1] is 2.344 µM. The “IMP1 SM5741 MITC95” value in test [2] was 50 µM. The “NDM1 EC30016 MITC95” value in test [3] came to 0.7813 µM.

For the molecule `O=C(O)[C@@H](CC(F)(F)F)[C@H](Cc1ccc(NCCO)nc1)c1nnn[nH]1` [Example 436, (S)-4,4,4-trifluoro-2-((S)-2-(6-((2-hydroxyethyl)amino)pyridin-3-yl)-1-(1H-tetrazol-5-yl)ethyl)butanoic acid], the results for the IC50 on VIM-1, on NDM-1 and on IMP-1 were 54 nM, 1050 nM and 8290 nM, respectively. The “VIM1 KP599644 MITC95” value in test [1] worked out at 25 µM. The “IMP1 SM5741 MITC95” value in test [2] was 100 µM. In addition, in test [3], the “NDM1 EC30016 MITC95” value came out at 2.344 µM.

Turning to `CCC[C@H](C(=O)O)[C@H](Cc1ccc2c(c1)CNC2)c1nnn[nH]1` [Example 437, (S)-2-((S)-2-(isoindolin-5-yl)-1-(1H-tetrazol-5-yl)ethyl)pentanoic acid compound with 2,2,2-trifluoroacetic acid (1:1)], the IC50 at VIM-1 was 1.73 nM; on NDM-1 it was 533 nM; at IMP-1, 11400 nM. The “VIM1 KP599644 MITC95” value in test [1] was 6.25 µM. In addition, the “IMP1 SM5741 MITC95” value in test [2] was 150 µM. The “NDM1 EC30016 MITC95” value in test [3] was found to be 4.688 µM.

For the molecule `CC(C)C[C@H](C(=O)O)[C@H](Cc1ccc(CCN2CCCCC2=O)c(F)c1)c1nn[nH]n1` [Example 438, (S)-2-((S)-2-(3-fluoro-4-(2-(2-oxopiperidin-1-yl)ethyl)phenyl)-1-(2H-tetrazol-5-yl)ethyl)-4-methylpentanoic acid], the IC50 stood at 1.57 nM at VIM-1, 13.4 nM at NDM-1 and 4.84 nM at IMP-1. In test [1], the “VIM1 KP599644 MITC95” value was found to be 75 µM. Moreover, the “IMP1 SM5741 MITC95” value in test [2] came to 1.172 µM. For the same molecule, the “NDM1 EC30016 MITC95” value in test [3] was found to be 25 µM.

As for `CC(C)C[C@H](C(=O)O)[C@H](Cc1ccc(CN2CCC(O)C2)c(F)c1)c1nn[nH]n1.O=C(O)C(F)(F)F` (stereo partly drawn) [Example 439, 5-((2S,3S)-3-carboxy-1-(3-fluoro-4-((3-hydroxypyrrolidin-1-yl)methyl)phenyl)-5-methylhexan-2-yl)-2H-tetrazol-3-ium 2,2,2-trifluoroacetate], the IC50 on VIM-1 worked out at 4.32 nM; at NDM-1, 225 nM; at IMP-1, 483 nM. The “VIM1 KP599644 MITC95” value in test [1] is 37.5 µM. Besides, in test [2], the “IMP1 SM5741 MITC95” value came out at 37.5 µM. Besides, the “NDM1 EC30016 MITC95” value in test [3] was 31.25 µM.

Consider `CC(C)C[C@H](C(=O)O)[C@H](Cc1ccc(CCCN)c(F)c1)c1nn[nH]n1.O=C(O)C(F)(F)F` [Example 440, 5-((2S,3S)-1-(4-(3-aminopropyl)-3-fluorophenyl)-3-carboxy-5-methylhexan-2-yl)-2H-tetrazol-3-ium 2,2,2-trifluoroacetate], for which the figures for the IC50 on VIM-1, on NDM-1 and on IMP-1 were 1.62 nM, 37.5 nM and 124 nM, respectively. Besides, the “VIM1 KP599644 MITC95” value in test [1] turned out to be 12.5 µM. The “IMP1 SM5741 MITC95” value in test [2] was 6.25 µM. The “NDM1 EC30016 MITC95” value in test [3] was determined as 6.25 µM.

Turning to `CC(C)C[C@H](C(=O)O)[C@H](Cc1ccc(COCCN2CCNCC2)c(F)c1)c1nn[nH]n1.O=C(O)C(F)(F)F` [Example 441, 5-((2S,3S)-3-carboxy-1-(3-fluoro-4-((2-(piperazin-1-yl)ethoxy)methyl)phenyl)-5-methylhexan-2-yl)-4422H-tetrazol-3-ium 2,2,2-trifluoroacetate], the IC50 on VIM-1 is 19.7 nM; on NDM-1 it was 113 nM; at IMP-1, 214 nM. In addition, the “VIM1 KP599644 MITC95” value in test [1] stood at 50 µM. Further, the “IMP1 SM5741 MITC95” value in test [2] was 18.75 µM. Besides, the “NDM1 EC30016 MITC95” value in test [3] was 25 µM.
